# {P} = phosphate
# How the values were obtained:
# S91 mouse melanoma cells = assay: Melanin content of S91 melanoma cells; type: cell-based; details: 40 μM, 6 days
# Protocol: Cultures of S91 mouse melanoma cells (100,000 cells/38 cm^2) were treated with 100 μM pTpT or phosphorothioate pTpT (pTspT) (FIG. 4) or 40 μM 11mer-1 or the phosphorothioate 11mer-1 (11mer-1-S) (FIG. 5) for 6 days and were then collected, counted and assayed for melanin content.
# Duplicate cultures of S91 cells (100,000 cells/39 cm^2) were either sham-irradiated or irradiated with 5 mJ/cm^2 solar-simulated light from a 1 kW xenon arc solar-simulator (XMN 1000-21, Optical Radiation, Azuza, Calif.) metered at 285±5 nm using a research radiometer (model IL1700A, International Light, Newburyport, Mass.). Two sham-irradiated plates were then supplemented with 100 μM pTspT and two irradiated cultures were similarly treated with pTspT. After one week, cells were collected, counted and analyzed for melanin content by dissolving the cell pellets in 1 N NaOH and measuring the optical density at 475 nm. […] However, this response was blocked by the addition of pTspT (FIG. 6). In addition, the constitutive pigmentation of these cells was reduced by the pTspT in the sham-irradiated cultures, similar to the data presented in FIGS. 4 and 5.
# p95/Nbs1 phosphorylation = assay: Western blot for phospho-p95/Nbs1 in Saos-2 cells; type: cell-based; details: 40 μM
# Protocol: FIG. 18a: FACS profiles from one representative experiment of three with the percentage and standard deviations of cells in each phase of the cell cycle was calculated from triplicate cultures of each condition. FIG. 18b: Western blots with an antibody specific for phospho-p95/Nbs1. Lanes 1, 2 and 3 contained protein from cells treated with diluent, 11mer-1 or 11mer-2, respectively. Control cells (3 hours) were irradiated with 10 Gy of IR (+), or were sham irradiated (−).
# Saos-2 cells are an osteosarcoma cell line that is reportedly telomerase negative and maintain telomeres by the ALT pathway. Saos-2 cell lines were treated with either diluent or 40 μM of the indicated oligonucleotide and cells were collected after 48 hours for FACS analysis. […] The results that the effect of the T-oligo in the telomerase negative cells is identical to the response in telomerase positive malignant cell lines.
# p53 phosphoserine 37 = assay: Western blot for p53 phosphoserine 37; type: cell-based; details: normal neonatal fibroblasts, 40 μM
# Protocol: Western blot analysis was performed on normal neonatal cells using a antibody specific for p53 phosphoserine 37 after being treated with either diluent or 40 μM for the indicated times.
# Normal neonatal fibroblasts were treated with either diluent or 40 μM (11mer-1) for 4, 6, 8, 19, 24 and 48 hours and then collected for Western blot analysis using an antibody specific for p53 phosphoserine 37. Sham and IR-irradiated (10 Gy) fibroblasts were used used as negative and positive controls, respectively.
# [1] = test system: keratinocyte cell line (SSC12F); assay: S-phase arrest by FACS in keratinocyte cell line; type: cell-based; details: 48 hours, 11mer-1 alone (10 μM per FIG. 3B)
# Protocol: FIGS. 3A-3G are profiles showing the results of fluorescence activated cell sorting, for the following additions to the cells: FIG. 3A, diluent; FIG. 3B, 10 μM 11mer-1; FIG. 3C, 10 μM 11mer-1 and 1 μM 11mer-1-S; FIG. 3D, 10 μM 11mer-1 and 5 μM 11mer-1-S; FIG. 3E, 10 μM 11mer-1 and 10 μM 11mer-1-S; FIG. 3F, 20 μM 11mer-1-S; FIG. 3G, 10μM 11mer-1-S.
# Forty-three percent of the cells were in the S phase, compared to 26% of the control, diluent-treated cells.
# fibroblasts = assay: Degradation of the telomere 3′ overhang in fibroblasts; type: cell-based; details: up to 1 week (data not shown)
# [2] = test system: HT-1080 fibrosarcoma cells; assay: Telomere length (mean TRF length) assay; type: cell-based, human; details: HT-1080 cells, 40 μM, 4 days
# Protocol: Cells were treated as described in FIG. 13a. Lanes 1, 2, 3 contain genomic DNA from cells treated with diluent (D), T-oligo (T), or complementary oligo (C). Lanes 4 and 5 contain high (H) molecular and low (L) molecular weight standard telomeric DNA.
# HT-1080 fibrosarcoma cells were treated with diluent, 40 μM T-oligo or 40 μM complementary oligo for 4 days and then the genomic DNA was isolated using the DNeasy Tissue Kit (Qiagen, Valencia, Calif.). Telomere length was determined using the Telo TTAGGG Telomere Length Assay (Roche Molecular Biochemicals, Indianapolis, Ind.) following the protocol supplied by the manufacturer. […] Terminal restriction fragments (TRF) were detected by chemiluminescence. The mean TRF length was calculated by scanning the exposed X-ray film with a densitometer and calculated as previously described (Harley et al. [1990] Telomeres shorten during ageing of human fibroblasts. Nature 345, 458-460).
# To determine the affect of T-oligos on the mean telomere length (MTL) in HT-1080 cells, cells were analyzed after treatment with T-oligo for 4 days which corresponded to the time that the senescent phenotype was readily observed. […] The less than 100 bp difference in calculated MTL is within the range of experimental variation and is not significant.
# [3] = test system: phospho-p53 serine 15, phospho-p95 serine 343; assay: T-oligo response in fibroblasts with Mre11 siRNA knockdown, Western blot and densitometry; type: cell-based, human; details: fibroblasts with significantly reduced MRE11 levels (Mre11 siRNA), 48 hours
# Protocol: Normal human neonatal fibroblasts were treated with either 10 pmoles Mre11 siRNA or 10 pmoles control (no homology found in expressed human sequences). Cultures dishes were approximately 60% confluent on the day of siRNA transfection. Transfections were carried out using Lipofectamine 2000 (Invitrogen, Carlsbad, Calif.) following the protocol supplied by the manufacturer. The transfection cocktail was applied to the cells for 5 hours and then replaced with fresh medium alone. The next day, the transfection protocol was repeated. The following day, duplicate cultures were treated with the T-oligo or with diluent alone as a negative control. Cells were then collected 48 hours later and the protein analyzed by Western blot using antibodies specific for phospho-p95 serine 343 (Cell Signaling Technology, Beverly, Mass.), Mre11 (GeneTex, San Antonio, Tex.), phosphor-p53 serine 15 (Cell Signaling Technology) and total p53 (Oncogene, San Diego, Calif.) (FIG. 9). Hela cell lysate was used as a positive control for Mre11. Normal fibroblasts exposed to 10 Gy IR or sham irradiated and collected after one hour served as positive controls for p53 and p95/Nbs1 phosphorylation. The autoradiographs were analyzed by densitometry and the values for the T-oligo samples are expressed relative to the values for the diluent-treated samples (FIG. 10 and FIG. 11).
substance,measurement,setting,value
"pGTTAGGGTTAG (DNA, 5' {P}, backbone not given here; listed as Homo sapiens) [Oligonucleotide 11mer-1]",melanogenesis (melanin content),S91 mouse melanoma cells,stimulated melanogenesis
same,phosphorylation of p95/Nbs1,p95/Nbs1 phosphorylation,induced phosphorylation
same,p53 serine 37 phosphorylation (band intensity vs diluent),p53 phosphoserine 37; 8 hours,detected
same,p53 serine 37 phosphorylation (band intensity vs diluent),p53 phosphoserine 37; 48 hours,very prominent
same,cells in the S phase,[1],Forty-three
same,degradation of the telomere 3′ overhang,fibroblasts,does not result in degradation
same,mean telomere length (MTL),[2],5.56 kb
same,phospho-p53 response to T-oligo,[3],reduced
same,phospho-p95/Nbs1 response to T-oligo,[3],absent

# — patent publication US20060269924A1, “Modulation of telomere-initiated cell signaling” (TRUSTEES OF BOSTON UNIVERSITY, priority 2003, published 2006)
